Source: patent publication US9290515B2, “Cephem derivative having catechol group” (SHIONOGI & CO., LTD., priority 2011, dated 2016)
Values after ≈ are worked out from the molar mass of the structure shown.

Columns and labels:
Assay type in all cases: cell-based
[1] = tested on: E. coli ATCC BAA-196_TEM-10; experiment: MIC by broth microdilution (CLSI), E. coli ATCC BAA-196; details: Escherichia coli, ATCCBAA196; E. coli ATCC BAA-196, TEM-10, ESBL producing strain; 10000 cfu/well; cation-adjusted Mueller Hinton broth with 20 μM human apo-transferrin; read-out: minimum growth inhibition concentration (MIC)
Experimental: (§1) Measurement of a minimum growth inhibition concentration (MIC: μg/mL) was performed according to CLSI (Clinical and Laboratory Standards Institute) method, by broth microdilution method, using an inoculation microbe amount of 10000 cfu/well and cation-adjusted Mueller Hinton broth containing human-derived 20 μM apo-transferrin as a test medium.

[2] = tested on: P. aeruginosa SR24; experiment: MIC by broth microdilution (CLSI), P. aeruginosa SR24; details: Pseudomonas aeruginosa; P. aeruginosa SR24, Ceftazidime-sensitive strain; 10000 cfu/well; cation-adjusted Mueller Hinton broth with 20 μM human apo-transferrin; read-out: minimum growth inhibition concentration (MIC)
Experimental: as §1

[3] = tested on: P. aeruginosa SR27060(metallo); experiment: MIC by broth microdilution (CLSI), P. aeruginosa SR27060; details: Pseudomonas aeruginosa; P. aeruginosa SR27060, IMP-1, MBL producing carbapenem-resistant strain; 10000 cfu/well; cation-adjusted Mueller Hinton broth with 20 μM human apo-transferrin; read-out: minimum growth inhibition concentration (MIC)
Experimental: as §1

[4] = tested on: P. aeruginosa SR27001(MDRP, IMP-1+); experiment: MIC by broth microdilution (CLSI), P. aeruginosa SR27001; details: Pseudomonas aeruginosa; P. aeruginosa SR27001, MDRP, IMP-1, MBL producing carbapenem-resistant strain; 10000 cfu/well; cation-adjusted Mueller Hinton broth with 20 μM human apo-transferrin; read-out: minimum growth inhibition concentration (MIC)
Experimental: as §1

[5] = tested on: A. baumannii SR24396; experiment: MIC by broth microdilution (CLSI), A. baumannii SR24396; details: Acinetobacter baumannii, 10000 cfu/well, cation-adjusted Mueller Hinton broth with 20 μM human apo-transferrin, read-out: minimum growth inhibition concentration (MIC)
Experimental: as §1

[6] = tested on: S. maltophilia SR21970(L-1); experiment: MIC by broth microdilution (CLSI), S. maltophilia SR21970; details: Stenotrophomonas maltophilia; S. maltophilia SR21970, L-1, MBL producing carbapenem-resistant strain; 10000 cfu/well; cation-adjusted Mueller Hinton broth with 20 μM human apo-transferrin; read-out: minimum growth inhibition concentration (MIC)
Experimental: as §1

[7] = tested on: K. pneumoniae ATCC 700603_SHV18; experiment: MIC by broth microdilution (CLSI), K. pneumoniae ATCC 700603; details: Klebsiella pneumoniae, ATCC700603; K. pneumoniae ATCC 700603, SHV-18, ESBL producing strain; 10000 cfu/well; cation-adjusted Mueller Hinton broth with 20 μM human apo-transferrin; read-out: minimum growth inhibition concentration (MIC)
Experimental: as §1

| SMILES | MIC [1] [µg/mL] | MIC [2] [µg/mL] | MIC [3] [µg/mL] | MIC [4] [µg/mL] | MIC [5] [µg/mL] | MIC [6] [µg/mL] | MIC [7] [µg/mL] |
| --- | --- | --- | --- | --- | --- | --- | --- |
| C[N+]1(CC2=C(C(=O)[O-])N3C(=O)[C@@H](NC(=O)/C(=N\O[C@H](C(=O)[O-])c4ccc(O)c(O)c4)c4csc(N)n4)[C@H]3SC2)CCCC1.[Na+] [Comparative Example compound 1, reference compound] | 16 | 8 | > 32 | > 32 | 4 | > 32 | 16 |
| Nc1nc(/C(=N/OC[C@H](NC(=O)c2ccc(O)c(O)c2Cl)C(=O)[O-])C(=O)N[C@@H]2C(=O)N3C(C(=O)[O-])=C(Cn4ccc(=O)c(O)c4)CS[C@H]23)cs1.[Na+].[Na+] [Compound I-5] | 8 | – | – | – | ≤ 0.031 | – | – |
| CC(C)(O/N=C(\C(=O)N[C@@H]1C(=O)N2C(C(=O)[O-])=C(C[N@+]3(C)[C@@H]4CC[C@H]3C[C@@H](N)C4)CS[C@H]12)c1ccc(O)c(O)c1Cl)C(=O)O [Compound I-20] | 2 (≈ 3.07 µM) | – | 4 (≈ 6.13 µM) | – | – | – | – |
| NCC[N+]1(CC2=C(C(=O)[O-])N3C(=O)[C@@H](NC(=O)/C(=N\OC[C@H](NC(=O)c4ccc(O)c(O)c4Cl)C(=O)O)c4csc(N)n4)[C@H]3SC2)CCCC1 [Compound I-2] | 0.25 (≈ 0.332 µM) | 0.125 (≈ 0.166 µM) | 0.125 (≈ 0.166 µM) | 0.25 (≈ 0.332 µM) | 0.063 (≈ 0.0836 µM) | – | 4 (≈ 5.31 µM) |
| Nc1nc(/C(=N/OC(CNC(=O)c2ccc(O)c(O)c2Cl)C(=O)[O-])C(=O)N[C@@H]2C(=O)N3C(C(=O)[O-])=C(C[N+]45CCC(CC4)CC5)CS[C@H]23)cs1.[Na+] (some centres unmarked) [Compound I-9] | 0.5 | 0.125 | 1 | 2 | 0.063 | 1 | 0.125 |
| NCC[N+]1(CC2=C(C(=O)[O-])N3C(=O)[C@@H](NC(=O)/C(=N\OC(C[C@H](NC(=O)c4ccc(O)c(O)c4Cl)C(=O)[O-])C(=O)O)c4csc(N)n4)[C@H]3SC2)CCCC1.[Na+] (some centres unmarked) [Compound I-31] | 0.25 | 0.5 | – | 1 | – | – | 0.25 |
| Nc1nc(/C(=N/O[C@H](C(=O)[O-])c2ccc(O)c(O)c2)C(=O)N[C@@H]2C(=O)N3C(C(=O)[O-])=C(C[N+]45CCC(CC4)CC5)CS[C@H]23)cs1.[Na+] [Comparative Example compound 2, reference compound] | 32 | 8 | > 32 | > 32 | 16 | > 32 | 16 |
| NCC[N+]1(CC2=C(C(=O)[O-])N3C(=O)[C@@H](NC(=O)/C(=N\OC(CNC(=O)c4ccc(O)c(O)c4Cl)C(=O)O)c4csc(N)n4)[C@H]3SC2)CCCC1 (some centres unmarked) [Compound I-7] | 0.125 (≈ 0.166 µM) | 0.125 (≈ 0.166 µM) | 0.125 (≈ 0.166 µM) | 0.5 (≈ 0.664 µM) | ≤ 0.031 | – | 0.063 (≈ 0.0836 µM) |
| C[N+]1(CC2=C(C(=O)[O-])N3C(=O)[C@@H](NC(=O)/C(=N\OC(CNC(=O)c4ccc(O)c(O)c4Cl)C(=O)O)c4csc(N)n4)[C@H]3SC2)[C@@H]2CC[C@H]1C[C@@H](N)C2 (some centres unmarked) [Compound I-6] | 0.25 (≈ 0.321 µM) | 0.125 (≈ 0.16 µM) | 0.25 (≈ 0.321 µM) | 0.25 (≈ 0.321 µM) | ≤ 0.031 | – | 0.125 (≈ 0.16 µM) |
| Nc1nc(/C(=N/OC(CNC(=O)c2ccc(O)c(O)c2Cl)C(=O)[O-])C(=O)N[C@@H]2C(=O)N3C(C(=O)[O-])=C(C[n+]4cccc5c4CCC5)CS[C@H]23)cs1.[Na+] (some centres unmarked) [Compound I-13] | 1 | 0.125 | 2 | 2 | 0.063 | > 32 | 0.5 |
| Nc1nc(/C(=N/OC(CNC(=O)c2ccc(O)c(O)c2Cl)C(=O)[O-])C(=O)N[C@@H]2C(=O)N3C(C(=O)[O-])=C(C[N+]4(CCNC(=O)CC[C@H](N)C(=O)O)CCCC4)CS[C@H]23)c(Cl)s1.[Na+] (some centres unmarked) [Compound I-29] | 0.5 | 0.5 | – | 2 | – | – | 1 |
| C[N+]1(CC2=C(C(=O)[O-])N3C(=O)[C@@H](NC(=O)/C(=N\OC[C@H](NC(=O)c4ccc(O)c(O)c4Cl)C(=O)O)c4csc(N)n4)[C@H]3SC2)[C@@H]2CC[C@H]1C[C@@H](N)C2 (some centres unmarked) [Compound I-1] | 0.25 (≈ 0.321 µM) | 0.125 (≈ 0.16 µM) | 0.25 (≈ 0.321 µM) | 0.5 (≈ 0.642 µM) | ≤ 0.031 | – | 2 (≈ 2.57 µM) |
| Nc1nc(/C(=N/OC(C[C@H](NC(=O)c2ccc(O)c(O)c2Cl)C(=O)[O-])C(=O)[O-])C(=O)N[C@@H]2C(=O)N3C(C(=O)[O-])=C(C[N+]4(CCNC(=O)CC[C@H](N)C(=O)O)CCCC4)CS[C@H]23)cs1.[Na+].[Na+] (some centres unmarked) [Compound I-32] | 0.5 | 0.25 | – | 2 | – | – | 1 |
| NCC[N+]1(CC2=C(C(=O)[O-])N3C(=O)[C@@H](NC(=O)/C(=N\OC(CNC(=O)c4ccc(O)c(O)c4Cl)C(=O)O)c4nc(N)sc4Cl)[C@H]3SC2)CCCC1 (some centres unmarked) [Compound I-16] | 0.125 (≈ 0.159 µM) | 0.25 (≈ 0.317 µM) | – | 2 (≈ 2.54 µM) | – | – | 1 (≈ 1.27 µM) |
| Nc1nc(/C(=N/O[C@@H](CNC(=O)c2ccc(O)c(O)c2Cl)C(=O)[O-])C(=O)N[C@@H]2C(=O)N3C(C(=O)[O-])=C(C[N+]45CCC(CNC(=O)CC[C@H](N)C(=O)O)(CC4)CC5)CS[C@H]23)cs1.[Na+] [Compound I-12] | 2 | 0.25 | – | 4 | – | – | 1 |
| C[N+]1(CC2=C(C(=O)[O-])N3C(=O)[C@@H](NC(=O)/C(=N\OC(CNC(=O)c4ccc(O)c(O)c4Cl)C(=O)[O-])c4csc(N)n4)[C@H]3SC2)CCCC1.[Na+] (some centres unmarked) [Compound I-8] | 0.5 | 0.125 | 4 | 8 | 0.063 | – | 1 |
| Nc1nc(/C(=N/OC[C@H](NC(=O)c2ccc(O)c(O)c2Cl)C(=O)[O-])C(=O)N[C@@H]2C(=O)N3C(C(=O)[O-])=C(C[n+]4cccc5c4CCC5)CS[C@H]23)cs1.[Na+] [Compound I-3] | 1 | 0.25 | 1 | 4 | 0.125 | – | – |
| Nc1nc(/C(=N/OC[C@H](NC(=O)c2ccc(O)c(O)c2Cl)C(=O)[O-])C(=O)N[C@@H]2C(=O)N3C(C(=O)[O-])=C(C[N+]45CCC(CC4)CC5)CS[C@H]23)cs1.[Na+] [Compound I-23] | 1 | 0.125 | 0.5 | – | 0.25 | 8 | 8 |
| Nc1nc(/C(=N/OC(CNC(=O)c2ccc(O)c(O)c2Cl)C(=O)[O-])C(=O)N[C@@H]2C(=O)N3C(C(=O)[O-])=C(C[N+]4(CCNC(=O)CC[C@H](N)C(=O)O)CCCC4)CS[C@H]23)cs1.[Na+] (some centres unmarked) [Compound I-25] | 2 | 0.5 | – | 4 | – | – | 1 |
| Nc1nc(/C(=N/OC(CNC(=O)c2ccc(O)c(O)c2Cl)C(=O)[O-])C(=O)N[C@@H]2C(=O)N3C(C(=O)[O-])=C(C[N+]45CCCC4CCC5)CS[C@H]23)c(Cl)s1.[Na+] (some centres unmarked) [Compound I-28] | 0.5 | 0.25 | – | 8 | – | – | 1 |
